Experimental data as given in paper PMC8003321, “5-Aryl-1-Arylideneamino-1H-Imidazole-2(3H)-Thiones: Synthesis and In Vitro Anticancer Evaluation” (Molecules, 2021).

Tests used:
[1] = test system: HepG2 (hepatocellular carcinoma cell line); assay: MTT cytotoxicity assay, HepG2; format: cell-based; conditions: Homo sapiens, HepG2, 24 h, 24 h treatment, mean of three experiments
Procedure: (§1) The effect of imidazole molecules 4a–e and 5 on the viability of three cancer cell lines were studied using the MTT assay. The cytotoxicity was assessed using Docetaxel (DOC) as a standard antitumor drug. The three cancer cell lines were MCF-7 (breast cancer cell line), colon carcinoma (HCT-116), and HepG2 (hepatocellular carcinoma cell line). […] Moreover, the safety of compounds 4d and 5 was assessed against a normal breast cell line (MCF-10A) using the MTT assay.
(§2) Antitumor activity of the newly prepared imidazole compounds 4a–e and 5 were carried out against MCF-7, HepG2, HCT-116, and MCF-10A using the MTT assay method. Cells at a density of 1 × 10^4 were seeded in 96-well plates at 37 °C for 48 h under 5% CO2. After incubation, the cells were treated with different concentrations of the prepared molecules and incubated for 24 h. MTT dye was added at the end of 24 h of drug treatment and incubated for 4 h at 37 °C. Next, 100 µL of dimethyl sulfoxide was added to each well to dissolve the purple formazan formed. The color intensity of the formazan product, which represents the growth condition of the cells, is quantified using an ELISA plate reader at 570 nm. The experimental conditions were carried out with at least three replicates and the experiments were repeated at least three times.

[2] = test system: MCF-7 (breast cancer cell line); assay: MTT cytotoxicity assay, MCF-7; format: cell-based; conditions: Homo sapiens, MCF7, 24 h, 24 h treatment, mean of three experiments
Procedure: as §1, §2

[3] = test system: colon carcinoma (HCT-116); assay: MTT cytotoxicity assay, HCT-116; format: cell-based; conditions: 24 h treatment, mean of three experiments
Procedure: as §1, §2

B-Raf^V600E = biological target: T1, B-Raf^V600E (Homo sapiens, UniProt P15056, V600E); assay: In vitro B-Raf kinase assay (ELISA); format: biochemical; conditions: n = 3, read-out: IC50 against B-Raf^V600E (converted)
T1 construct: purchased
Procedure: Raf is a protein kinase that initiates a cascade of other protein kinases by acting on the protein kinases MEK-1 and MEK-2 [21].
(§3) Next, 100 µL of standard solution and tested molecules were pipetted into the 96-wells and B-RAF was bound to the wells by the immobilized antibody. The wells were washed and biotinylated antihuman B-Raf antibody was added. After washing away unbound biotinylated antibody, 100 µL of conjugated streptavidin solution was pipetted into the wells. After washing, 100 µL of TMB substrate solution was added to the wells for 30 min at 37 °C. Stop solution (50 µL) was added, and the intensity of the color is measured immediately at 450 nm.

MCF-7 cells [4] = assay: Annexin V-FITC/PI apoptosis induction analysis; format: cell-based; conditions: MCF-7, compound at its IC50, 48 h; for percent of early apoptosis: lower right quadrant, control 0.43%; for percent of late apoptosis: upper right quadrant, control 0.23%
Procedure: Several imidazole molecules have been reported in the literature as apoptosis inducers in several tumor cell lines. To evaluate the mode of cell death induced by compounds 4d and 5, Annexin V/FITC and propidium iodide (PI) assays were performed. MCF-7 cells were treated with compounds 4d and 5 at their IC50 concentration dose value for 48 h.
Apoptosis in MCF-7 cells was investigated using fluorescent Annexin V-FITC/PI detection kit by flow cytometry assay. Briefly, MCF-7 cells (2 × 10^5) after incubation for 12 h. Cells were treated with compounds 4d and 5 at their IC50 concentration for 48 h, then the cells were harvested and stained with Annexin V-FITC/PI dye for 15 min in the dark at 37 °C. Flow cytometry analyses were performed using a FACS Calibur flow cytometer (Becton and Dickinson, Heidelberg, Germany).

[5] = test system: normal breast cell line (MCF-10A); assay: MTT cytotoxicity assay, normal breast cell line MCF-10A; format: cell-based; conditions: for IC50: Homo sapiens, MCF-10A, 24 h treatment
Procedure: as §1, §2

human VEGFR-2 = biological target: T2, human VEGFR-2 (Homo sapiens, UniProt P35968); assay: In vitro VEGFR-2 kinase assay (ELISA); format: biochemical; conditions: n = 3, read-out: IC50 against VEGFR-2 kinase (converted)
T2 construct: purchased
Procedure: To investigate the possible molecular mechanism underlying the potent anticancer activity of compounds 4d and 5. Their inhibitory activity against VEGFR-2 kinase was determined using an ELISA assay.
as §3, with “A total of” for “Next,”, “VEGFR-2” for “B-RAF”, “VEGFR-2” for “B-Raf”, “was” for “is”

MCF-7 cells [6] = assay: Cell cycle analysis by DNA flow cytometry; format: cell-based; conditions: MCF-7, compound at its IC50, 48 h; for percentage of cells at pre-G1 phase: control 1.61%; for percentage of cell population at the G2/M phase: control 8.79%
Procedure: Therefore, it can be concluded that compounds 4d and 5 inhibit the cell proliferation of MCF-7 cells via cell cycle arrest at the G2/M phase and induction of apoptosis (Figure 2).
MCF-7 cells (2 × 10^5/well) were harvested and washed twice in PBS. After that, cells were incubated at 37 °C and 5% CO2. The medium was replaced with DMSO (1% v/v) containing the tested compounds, then incubated for 48 h, washed twice in PBS, fixed with 70% ethanol, rinsed again with PBS, and then stained with DNA fluorochrome PI for 15 min at 37 °C. DNA content was analyzed by flow cytometry on a FACS Calibur flow cytometer (Becton and Dickinson, Heidelberg, Germany).

MCF-7 cell line = test system: MCF-7 cell line; parameters: method as in PMID 32757353; conditions: read-out: IC50 against MCF-7 cell line; cited from earlier work

T2 sequence (P35968 20-1356): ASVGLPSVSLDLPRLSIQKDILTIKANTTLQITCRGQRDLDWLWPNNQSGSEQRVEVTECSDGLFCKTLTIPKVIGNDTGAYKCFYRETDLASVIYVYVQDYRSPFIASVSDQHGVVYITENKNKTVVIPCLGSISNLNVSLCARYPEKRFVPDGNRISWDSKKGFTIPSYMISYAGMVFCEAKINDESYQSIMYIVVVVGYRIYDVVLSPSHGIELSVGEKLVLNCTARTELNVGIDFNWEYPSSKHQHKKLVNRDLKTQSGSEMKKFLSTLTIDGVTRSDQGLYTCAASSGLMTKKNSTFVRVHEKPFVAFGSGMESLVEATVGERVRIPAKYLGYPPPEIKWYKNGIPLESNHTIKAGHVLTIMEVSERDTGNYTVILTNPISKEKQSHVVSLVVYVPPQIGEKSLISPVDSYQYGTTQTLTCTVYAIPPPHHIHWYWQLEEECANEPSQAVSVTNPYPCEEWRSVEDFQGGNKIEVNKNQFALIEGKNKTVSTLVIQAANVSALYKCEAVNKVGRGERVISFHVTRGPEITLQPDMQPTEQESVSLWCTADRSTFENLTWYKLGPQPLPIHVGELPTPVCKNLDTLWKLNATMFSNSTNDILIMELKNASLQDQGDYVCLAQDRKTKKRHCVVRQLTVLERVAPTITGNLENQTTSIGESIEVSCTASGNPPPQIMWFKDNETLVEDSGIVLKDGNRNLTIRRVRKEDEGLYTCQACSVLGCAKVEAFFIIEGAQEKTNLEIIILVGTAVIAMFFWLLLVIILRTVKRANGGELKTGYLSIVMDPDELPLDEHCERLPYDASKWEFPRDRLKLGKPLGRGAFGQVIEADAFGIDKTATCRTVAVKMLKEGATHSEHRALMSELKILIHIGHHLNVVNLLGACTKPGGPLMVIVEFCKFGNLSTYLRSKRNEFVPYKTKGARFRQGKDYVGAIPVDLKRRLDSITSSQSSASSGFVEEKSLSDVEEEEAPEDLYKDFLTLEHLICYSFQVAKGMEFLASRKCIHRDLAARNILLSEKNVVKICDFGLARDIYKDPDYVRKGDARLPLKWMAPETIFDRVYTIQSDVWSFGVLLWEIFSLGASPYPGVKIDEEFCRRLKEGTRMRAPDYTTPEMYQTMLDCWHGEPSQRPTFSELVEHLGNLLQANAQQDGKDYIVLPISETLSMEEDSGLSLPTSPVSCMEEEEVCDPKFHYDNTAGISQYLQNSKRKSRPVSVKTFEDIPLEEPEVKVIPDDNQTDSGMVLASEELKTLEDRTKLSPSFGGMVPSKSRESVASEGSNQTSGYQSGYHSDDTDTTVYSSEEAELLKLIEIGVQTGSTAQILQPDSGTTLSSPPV
T1 sequence (P15056 whole entry V600E): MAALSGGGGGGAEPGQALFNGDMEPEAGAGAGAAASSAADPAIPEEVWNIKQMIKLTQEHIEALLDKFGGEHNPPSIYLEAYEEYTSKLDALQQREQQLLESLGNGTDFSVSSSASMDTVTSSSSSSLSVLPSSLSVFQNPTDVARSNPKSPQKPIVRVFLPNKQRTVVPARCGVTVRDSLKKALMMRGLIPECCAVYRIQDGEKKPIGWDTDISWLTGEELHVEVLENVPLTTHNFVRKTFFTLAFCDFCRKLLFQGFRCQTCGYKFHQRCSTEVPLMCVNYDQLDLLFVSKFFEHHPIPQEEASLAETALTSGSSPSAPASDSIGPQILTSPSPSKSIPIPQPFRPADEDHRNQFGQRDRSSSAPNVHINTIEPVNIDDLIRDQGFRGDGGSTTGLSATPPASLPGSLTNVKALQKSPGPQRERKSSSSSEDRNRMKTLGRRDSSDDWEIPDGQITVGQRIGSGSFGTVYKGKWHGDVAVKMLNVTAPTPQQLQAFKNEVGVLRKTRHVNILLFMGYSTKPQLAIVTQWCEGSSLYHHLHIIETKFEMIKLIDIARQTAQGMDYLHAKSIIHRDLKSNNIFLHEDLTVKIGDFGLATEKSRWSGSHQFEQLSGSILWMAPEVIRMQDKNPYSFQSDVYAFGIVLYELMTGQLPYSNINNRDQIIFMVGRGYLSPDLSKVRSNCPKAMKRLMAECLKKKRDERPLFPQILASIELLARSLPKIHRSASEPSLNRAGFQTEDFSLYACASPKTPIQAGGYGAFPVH

Row | melting point [°C] | SMILES | IC50 [1] [µM] | IC50 [2] [µM] | IC50 ([3]; Homo sapiens, HCT-116, 24 h) [µM] | IC50 [5] [µM] | also measured
1 | 121 to 123 | S=c1[nH]cc(-c2ccc(Cl)cc2)n1/N=C/c1ccccc1 [Compound 4a, (E)-1-(Benzylideneamino)-5-(4-chlorophenyl)-1H-imidazole-2(3H)-thione] | 61.8 ± 4.1 | > 50 | 20.6 ± 1.4 |  | 
2 | 128 to 130 | Oc1ccccc1/C=N/n1c(-c2ccc(Cl)cc2)c[nH]c1=S [Compound 4b, (E)-5-(4-Chlorophenyl)-1-(2-hydroxybenzylideneamino)-1H-imidazole-2(3H)-thione] | > 50 | 24.9 ± 1.6 | 23.5 ± 1.6 |  | 
3 | 191 to 193 | Oc1ccc(Br)cc1/C=N/n1c(-c2ccc(Cl)cc2)c[nH]c1=S [Compound 4c, (E)-1-(5-Bromo-2-hydroxybenzylideneamino)-5-(4-chlorophenyl)-1H-imidazole-2(3H)-thione] | 11.4 ± 0.8 | 44 ± 2.9 | 9.96 ± 0.7 |  | 
4 |  | COc1ccc(/C=N/n2c(-c3ccc(Cl)cc3)c[nH]c2=S)cc1 [Compound 4d, (E)-5-(4-Chlorophenyl)-1-(4-methoxybenzylideneamino)-1H-imidazole-2(3H)-thione] | 4.09 ± 0.3 | 7.97 ± 0.5 | 28.9 ± 1.9 | 44.06 ± 0.23 | IC50 (B-Raf^V600E): 38 µM; percent of early apoptosis (MCF-7 cells [4]): 6.12%; percent of late apoptosis (MCF-7 cells [4]): 10.23%; cytotoxic effect towards MCF-10A (in words) [5]: weak cytotoxic effect; IC50 (human VEGFR-2): 0.721 µM; percentage of cells at pre-G1 phase (MCF-7 cells [6]): 22.36%; percentage of cell population at the G2/M phase (MCF-7 cells [6]): 35.55%
5 | 139 to 141 | S=c1[nH]cc(-c2ccc(Cl)cc2)n1/N=C/C=C/c1ccccc1 [Compound 4e, 5-(4-Chlorophenyl)-1-((E)-((E)-3-phenylallylidene)amino)-1H-imidazole-2(3H)-thione] | 17 ± 1.1 | 13.2 ± 0.9 | 3.99 ± 0.3 |  | 
6 |  | COc1ccc(-c2c[nH]c(=S)n2/N=C/c2ccccc2O)cc1 [Compound 5, (E)-1-(2-Hydroxybenzylideneamino)-5-(4-methoxyphenyl)-1H-imidazole-2(3H)-thione] |  |  | < 5 | 27.8 ± 0.31 | IC50 (B-Raf^V600E): 7.31 µM; percent of early apoptosis (MCF-7 cells [4]): 2.66%; percent of late apoptosis (MCF-7 cells [4]): 13.64%; cytotoxic effect towards MCF-10A (in words) [5]: weak cytotoxic effect; IC50 [3]: 3.99 ± 0.3 µM; IC50 (human VEGFR-2): 0.252 µM; percentage of cells at pre-G1 phase (MCF-7 cells [6]): 22.81%; percentage of cell population at the G2/M phase (MCF-7 cells [6]): 25.63%
7 | 115 to 117 | CC(=O)Oc1ccccc1/C=N/n1c(-c2ccc(Cl)cc2)cn(C(C)=O)c1=S [Compound 6, (E)-2-((3-Acetyl-5-(4-chlorophenyl)-2-thioxo-2,3-dihydro-1H-imidazol-1-ylimino)methyl)phenyl Acetate] |  |  |  |  | 
8 |  | CC(=O)O[C@@]12CO[C@@H]1C[C@H](O)[C@@]1(C)C(=O)[C@H](O)C3=C(C)[C@@H](OC(=O)[C@H](O)[C@@H](NC(=O)OC(C)(C)C)c4ccccc4)C[C@@](O)([C@@H](OC(=O)c4ccccc4)[C@H]21)C3(C)C [DOC, Docetaxel, reference compound] | 8.13 ± 0.5 | 11.1 ± 0.7 | 14 ± 0.9 | 33.17 ± 0.19 | 
9 |  | CNC(=O)c1cc(Oc2ccc(NC(=O)Nc3ccc(Cl)c(C(F)(F)F)c3)cc2)ccn1 [SOR] |  |  |  |  | IC50 (MCF-7 cell line): 1.12 µM
10 |  | CCOC(=O)/C(C#N)=C(\c1ccc(O)cc1)n1cc(O)n(/N=C/C=C/c2ccccc2)c1=S [compound III] |  |  |  |  | IC50 (MCF-7 cell line): 3.26 µM
